Data published in US8618138B2, “Indole amide derivatives and related compounds for use in the treatment of neurodegenerative diseases” (Katholieke Universiteit Leuven, K.U. Leuven R&D, priority 2009, dated 2013).

These molecules were tested on M17-TAU P301L cells (assay: TAU cytotoxicity assay: LDH leakage of retinoic acid incubated M17-TAU P301L cells). Conditions: Homo sapiens, 168 h, reduction of LDH activity of retinoic acid incubated M17-TAU P301L cells, 7 days.
Format: cell-based, human
Text: A TAU expression plasmid was constructed by sub-cloning the cDNA of human TAU-P301 L (encoding for TAU with proline 301 substituted by a leucine residue) into mammalian expression vector pcDNA3.1 resulting in plasmid pcDNA3.1-TAU P301L. Plasmids pcDNA3.1 and pcDNA3.1-TAU P301L were transfected to human neuroblastoma cells ([…]; ATCC No. CRL-2267) and independent clonal lines with the plasmids stably integrated into the genome were selected. […] Expression of the TAU P301L genes in the cell lines was confirmed by Western analysis.
In degenerated or dead cells lactate dehydrogenase (LDH) is leaked out of the cells into the extracellular environment due to a loss of plasma-membrane integrity. This principle was used to determine cytotoxicity by quantifying the level of leaked LDH into the growth medium.
The detailed method for determining TAU cytotoxicity was as follows: From appropriate precultures of M17-3.1 and M17-TAU(P301L) cells were seeded at 2500 cells/cm2 in Optimem Reduced Serum without phenol red (Gibco, Cat. 31985-047) supplemented with 1% fetal calf serum, 1 mM sodium pyruvate, 1× non-essential amino acids, 500 μg/ml G418 0.5× antibiotic/antimycotic. After 3 h of incubation at 37° C./5% CO2 1 volume of Optimem Reduced Serum (same as described above; except without fetal calf serum) supplemented with 2.5 μM retinoic acid (RA) was added. The cells were further incubated for 7 days. Subsequently, LDH activity was determined using Promega Cytotox 96 Non-Radioactive cytotoxicity assay, (Cat. G1780) according the supplier's instructions.
The M17-TAU P301L cell line made it possible to assess the ability of novel compounds to counteract TAU cytotoxicity. […] These measurements were used to calculate EC50 values of table 2.
Exemplary compounds of the present invention are shown in table 2, with their chemical name and their EC50 value (expressed in nM) as determined from example 196 in the Tau-induced toxicity experiment.
Work on `Cc1ccc2[nH]cc(CCNC(=O)c3cc(Cc4cccc(F)c4)on3)c2c1` [Example D14, 5-(3-fluorobenzyl)-N-(2-(5-methyl-1H-indol-3-yl)ethyl)isoxazole-3-carboxamide] yielded an EC50 of 0.019 µM.
For `O=C(NCCc1c[nH]c2ccc(Cl)cc12)c1cc(Cc2ccncc2)on1` [Example D41, N-(2-(5-chloro-1H-indol-3-yl)ethyl)-5-(pyridin-4-ylmethyl)isoxazole-3-carboxamide], the EC50 was 0.091 µM.
`O=C(NCCc1c[nH]c2ccc(Cl)cc12)c1csc(-c2ccccc2)n1` [Example D67, N-(2-(5-chloro-1H-indol-3-yl)ethyl)-2-phenylthiazole-4-carboxamide] was tested, and the EC50 was 0.333 µM.
`O=C(NCCc1c[nH]c2ccc(Cl)cc12)c1noc(Cc2cccc(Cl)c2)n1` [Example D190, N-(2-(5-chloro-1H-indol-3-yl)ethyl)-5-(3-chlorobenzyl)-1,2,4-oxadiazole-3-carboxamide] showed an EC50 of 0.025 µM.
`O=C(NCCc1c[nH]c2ccc(Cl)cc12)c1cc(Cc2cc(F)cc(F)c2)on1` [Example D131, N-(2-(5-chloro-1H-indol-3-yl)ethyl)-5-(3,5-difluorobenzyl)isoxazole-3-carboxamide] was tested, and the EC50 was 0.013 µM.
`COc1ccc(Cc2cc(C(=O)NCCc3c[nH]c4ccc(Cl)cc34)no2)cc1` [Example D10, N-(2-(5-chloro-1H-indol-3-yl)ethyl)-5-(4-methoxybenzyl)isoxazole-3-carboxamide] was tested, and the EC50 was 0.017 µM.
In the case of `Cc1ccc(-c2cc(C(=O)NCCc3c[nH]c4ccc(Cl)cc34)no2)cc1` [Example D57, N-(2-(5-chloro-1H-indol-3-yl)ethyl)-5-p-tolylisoxazole-3-carboxamide], the EC50 is reported as 0.195 µM.
For `Cc1cc(C(=O)NCCc2c[nH]c3ccc(Cl)cc23)no1` [Example D114, N-(2-(5-chloro-1H-indol-3-yl)ethyl)-5-methylisoxazole-3-carboxamide], the EC50 was 0.03 µM.
`CC(C)c1ccc(N2CCC(C(=O)NCCc3c[nH]c4ccc(Cl)cc34)C2=O)cc1` (stereo not shown) [Example D71, N-(2-(5-chloro-1H-indol-3-yl)ethyl)-1-(4-isopropylphenyl)-2-oxopyrrolidine-3-carboxamide] showed an EC50 of 0.413 µM.
With `O=C(NCCc1c[nH]c2ccc(Cl)cc12)c1nnc(-c2ccccc2)o1` [Example D52, N-(2-(5-chloro-1H-indol-3-yl)ethyl)-5-phenyl-1,3,4-oxadiazole-2-carboxamide] the EC50 was 0.158 µM.
`O=C(NCCc1c[nH]c2ccc(Cl)cc12)c1noc(Cc2cc(F)cc(F)c2)n1` [Example D182, N-(2-(5-chloro-1H-indol-3-yl)ethyl)-5-(3,5-difluorobenzyl)-1,2,4-oxadiazole-3-carboxamide] showed an EC50 of 0.011 µM.
Molecule `Cc1ccc(-c2nc(C)c(C(=O)NCCc3c[nH]c4ccccc34)s2)cc1` [Example D24, N-(2-(1H-indol-3-yl)ethyl)-4-methyl-2-p-tolylthiazole-5-carboxamide] has an EC50 of 0.034 µM.
Molecule `O=C(NCCc1c[nH]c2ccc(Cl)cc12)c1noc(Cc2ccc(Cl)cc2)n1` [Example D172, N-(2-(5-chloro-1H-indol-3-yl)ethyl)-5-(4-chlorobenzyl)-1,2,4-oxadiazole-3-carboxamide] has an EC50 of 0.034 µM.
`Cc1ccc(Cc2nc(C(=O)NCCc3c[nH]c4ccc(Cl)cc34)no2)cc1` [Example D181, N-(2-(5-chloro-1H-indol-3-yl)ethyl)-5-(4-methylbenzyl)-1,2,4-oxadiazole-3-carboxamide] gave an EC50 of 0.048 µM.
With `Cc1onc(-c2ccccc2)c1C(=O)NCCc1c[nH]c2ccc(Cl)cc12` [Example D111, N-(2-(5-chloro-1H-indol-3-yl)ethyl)-5-methyl-3-phenylisoxazole-4-carboxamide] the EC50 was 0.582 µM.
Work on `O=C(NCCc1c[nH]c2ccc(Cl)cc12)c1cc(Cc2cccs2)on1` [Example D27, N-(2-(5-chloro-1H-indol-3-yl)ethyl)-5-(thiophen-2-ylmethyl)isoxazole-3-carboxamide] yielded an EC50 of 0.038 µM.
Work on `CCc1ccc(N2CCC(C(=O)NCCc3c[nH]c4ccc(Cl)cc34)C2=O)cc1` (stereo not shown) [Example D40, N-(2-(5-chloro-1H-indol-3-yl)ethyl)-1-(4-ethylphenyl)-2-oxopyrrolidine-3-carboxamide] yielded an EC50 of 0.091 µM.
In the case of `O=C(NCCc1c[nH]c2ccc(Cl)cc12)c1cc(C2CCCC2)on1` [Example D2, N-(2-(5-chloro-1H-indol-3-yl)ethyl)-5-cyclopentylisoxazole-3-carboxamide], the EC50 is reported as 0.003 µM.
With `Cn1nc(C(=O)NCCc2c[nH]c3ccc(Cl)cc23)cc1-c1ccccc1` [Example D26, N-(2-(5-chloro-1H-indol-3-yl)ethyl)-1-methyl-5-phenyl-1H-pyrazole-3-carboxamide] the EC50 was 0.038 µM.
`O=C(NCCc1c[nH]c2ccc(Cl)cc12)C1CCN(c2ccc(F)c(F)c2)C1=O` (stereo not shown) [Example D148, N-(2-(5-chloro-1H-indol-3-yl)ethyl)-1-(3,4-difluorophenyl)-2-oxopyrrolidine-3-carboxamide] was tested, and the EC50 was 0.691 µM.
In the case of `O=C(NCCc1c[nH]c2ccc(Cl)cc12)C1CCN(c2ccc(Cl)cc2)C1=O` (stereo not shown) [Example D153, N-(2-(5-chloro-1H-indol-3-yl)ethyl)-1-(4-chlorophenyl)-2-oxopyrrolidine-3-carboxamide], the EC50 is reported as 0.365 µM.
Work on `CC(C)(C)c1cc(C(=O)NCCc2c[nH]c3ccc(Cl)cc23)n(Cc2ccccc2)n1` [Example D120, 1-benzyl-3-tert-butyl-N-(2-(5-chloro-1H-indol-3-yl)ethyl)-1H-pyrazole-5-carboxamide] yielded an EC50 of 0.868 µM.
`O=C(NCCc1c[nH]c2ccc(Cl)cc12)C1=N[C@@H](C2CCCCC2)CO1` [Example D59, (S)-N-(2-(5-chloro-1H-indol-3-yl)ethyl)-4-cyclohexyl-4,5-dihydrooxazole-2-carboxamide] gave an EC50 of 0.211 µM.
With `Cc1ccc(Nc2nc(C(=O)NCCc3c[nH]c4ccccc34)cs2)cc1` [Example D110, N-(2-(1H-indol-3-yl)ethyl)-2-(p-tolylamino)thiazole-4-carboxamide] the EC50 was 0.274 µM.
`O=C(NCCc1c[nH]c2ccc(Cl)cc12)C1CCN(CC2CCCCC2)C1=O` (stereo not shown) [Example D164, N-(2-(5-chloro-1H-indol-3-yl)ethyl)-1-(cyclohexylmethyl)-2-oxopyrrolidine-3-carboxamide] showed an EC50 of 0.32 µM.
In the case of `O=C(NCCc1c[nH]c2ccc(Cl)cc12)c1cc(Cc2ccccc2)on1` [Example D7, 5-benzyl-N-(2-(5-chloro-1H-indol-3-yl)ethyl)isoxazole-3-carboxamide], the EC50 is reported as 0.015 µM.
`O=C(NCCc1c[nH]c2ccc(Cl)cc12)c1noc(Cc2ccc(Cl)c(F)c2)n1` [Example D175, N-(2-(5-chloro-1H-indol-3-yl)ethyl)-5-(4-chloro-3-fluorobenzyl)-1,2,4-oxadiazole-3-carboxamide] was tested, and the EC50 was 0.094 µM.
Work on `COc1cccc(N2CCC(C(=O)NCCc3c[nH]c4ccc(Cl)cc34)C2=O)c1` (stereo not shown) [Example D162, N-(2-(5-chloro-1H-indol-3-yl)ethyl)-1-(3-methoxyphenyl)-2-oxopyrrolidine-3-carboxamide] yielded an EC50 of 0.233 µM.
Work on `N#Cc1cccc(Cc2cc(C(=O)NCCc3c[nH]c4ccc(Cl)cc34)no2)c1` [Example D3, N-(2-(5-chloro-1H-indol-3-yl)ethyl)-5-(3-cyanobenzyl)isoxazole-3-carboxamide] yielded an EC50 of 0.006 µM.
For `Cc1ccccc1Cc1nc(C(=O)NCCc2c[nH]c3ccc(Cl)cc23)no1` [Example D192, N-(2-(5-chloro-1H-indol-3-yl)ethyl)-5-(2-methylbenzyl)-1,2,4-oxadiazole-3-carboxamide], the EC50 was 0.053 µM.
`O=C(NCCc1c[nH]c2ccc(Cl)cc12)c1cc(Cc2ccc(F)c(F)c2)on1` [Example D129, N-(2-(5-chloro-1H-indol-3-yl)ethyl)-5-(3,4-difluorobenzyl)isoxazole-3-carboxamide] was tested, and the EC50 was 0.008 µM.
With `O=C(NCCc1c[nH]c2c(F)cc(Cl)cc12)c1cc(Cc2cc(F)ccc2F)on1` [Example D141, N-(2-(5-chloro-7-fluoro-1H-indol-3-yl)ethyl)-5-(2,5-difluorobenzyl)isoxazole-3-carboxamide] the EC50 was 0.233 µM.
`O=C(NCCc1c[nH]c2ccc(Cl)cc12)c1ccnn1-c1ccccc1` [Example D117, N-(2-(5-chloro-1H-indol-3-yl)ethyl)-1-phenyl-1H-pyrazole-5-carboxamide] showed an EC50 of 0.979 µM.
In the case of `O=C(NCCc1c[nH]c2ccc(-c3ccccc3)cc12)c1cc(Cc2cc(F)ccc2F)on1` [Example D140, 5-(2,5-difluorobenzyl)-N-(2-(5-phenyl-1H-indol-3-yl)ethyl)isoxazole-3-carboxamide], the EC50 is reported as 0.316 µM.
In the case of `O=C(NCCc1c[nH]c2ccc(Cl)cc12)c1cc(CO)on1` [Example D121, N-(2-(5-chloro-1H-indol-3-yl)ethyl)-5-(hydroxymethyl)isoxazole-3-carboxamide], the EC50 is reported as 0.105 µM.
In the case of `Cn1ccc(C(=O)NCCc2c[nH]c3ccc(Cl)cc23)n1` [Example D118, N-(2-(5-chloro-1H-indol-3-yl)ethyl)-1-methyl-1H-pyrazole-3-carboxamide], the EC50 is reported as 0.332 µM.
With `O=C(NCCc1c[nH]c2ccc(Cl)cc12)C1CCN(C2CCCCC2)C1=O` (stereo not shown) [Example D76, N-(2-(5-chloro-1H-indol-3-yl)ethyl)-1-cyclohexyl-2-oxopyrrolidine-3-carboxamide] the EC50 was 0.571 µM.
